Assay results taken from US9289430B2, “Compounds and methods for inhibiting phosphate transport” (Ardelyx, Inc., priority 2010, dated 2016).

Assays:
[1] = target: T1, human NaP2b (SLC34A2) (Homo sapiens, UniProt O95436); test: NaP2b-mediated Pi transport: 33P phosphate uptake into transfected HEK293 cells; assay type: cell-based; details: human protein with threonine inserted after residue 37 and N39D, 100 uM KH2PO4, read-out: pIC50 range for human Nap2b (converted)
T1 construct: host or cells: HEK293
T1 sequence (O95436 1-690): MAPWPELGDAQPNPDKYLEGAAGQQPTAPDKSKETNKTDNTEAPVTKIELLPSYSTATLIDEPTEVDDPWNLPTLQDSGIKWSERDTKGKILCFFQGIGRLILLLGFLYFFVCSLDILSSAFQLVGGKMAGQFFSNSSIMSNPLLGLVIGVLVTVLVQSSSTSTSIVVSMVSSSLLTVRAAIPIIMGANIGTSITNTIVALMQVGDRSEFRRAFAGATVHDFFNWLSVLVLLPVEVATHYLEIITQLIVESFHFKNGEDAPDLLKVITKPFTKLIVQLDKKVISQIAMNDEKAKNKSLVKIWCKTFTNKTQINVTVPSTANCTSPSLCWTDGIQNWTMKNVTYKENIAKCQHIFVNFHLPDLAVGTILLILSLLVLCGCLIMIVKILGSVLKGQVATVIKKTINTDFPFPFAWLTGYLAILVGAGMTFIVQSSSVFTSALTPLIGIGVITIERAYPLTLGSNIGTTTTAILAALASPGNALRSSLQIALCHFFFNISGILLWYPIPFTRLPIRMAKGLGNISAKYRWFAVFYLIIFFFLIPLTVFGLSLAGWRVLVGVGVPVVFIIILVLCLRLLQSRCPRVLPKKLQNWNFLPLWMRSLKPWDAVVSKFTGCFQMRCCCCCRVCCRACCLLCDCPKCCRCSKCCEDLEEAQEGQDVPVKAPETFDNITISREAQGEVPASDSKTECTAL
Method: (§1) Materials. HEK293 cells were obtained from the American Type Culture collection and propagated per their instructions. Expression clones for rat and human NaP2b (SLC34A2) were obtained from Open Biosystems (Catalog numbers MRN1768-9510282, and MHS1010-99823026, respectively). The sequence of the human protein was mutated to insert a threonine after residue 37, and to introduce a N39D mutation.
(§2) Inhibition of Pi Transport. The rate of phosphate (Pi) uptake into HEK293 cells was measured using a modification of the method described by Mohrmann et al. (Mohrmann, I., Mohrmann, M., Biber, J., and Murer, H. (1986) Am. J. Phys. 250(3 Pt 1):G323-30.) Transfected HEK293 cells were treated with a pharmacological agent to minimize endogenous PiT-mediated phosphate transport activity, such that the only remaining sodium-dependent phosphate transport activity is that which was bestowed by introduction of the NaP2b genes.
(§3) Cells were seeded into 96-well plates at 25,000 cells/well and cultured overnight. Lipofectamine 2000 (Invitrogen) was used to introduce the NaP2b cDNA, and the cells were allowed to approach confluence during a second overnight incubation. […] Cells were then overlayed with either choline uptake buffer or sodium uptake buffer (14 mM Tris, 137 mM sodium chloride, 5.4 mM KCl, 2.8 mM CaCl2, 1.2 mM MgSO4, 100 uM KH2PO4, PiT-silencing agent, 1 mg/mL Bovine Serum Albumin, pH 7.4) containing 6-9 uCi/mL ^33P orthophosphoric acid (Perkin Elmer) and test compound. Each compound was tested at twelve concentrations ranging from 0.1 nM to 30 uM. Assays were run in duplicate.
(§4) After incubation for 3-30 minutes at room temperature, assay mixtures were removed, and the cells were washed twice with ice cold stop solution (137 mM sodium chloride, 14 mM Tris, pH 7.4). Cells were lysed by addition of 20 μL 0.1% Tween 80 followed by 100 μL scintillation fluid, and counted using a TopCount (Perkin Elmer).
(§5) pIC50 (the negative log of the IC50) values of the test compounds were calculated using GraphPad Prism.

[2] = target: T2, rat NaP2b (SLC34A2) (Rattus norvegicus, UniProt Q9JJ09); test: as above; assay type: cell-based; details: 100 uM KH2PO4, PiT-silencing agent, read-out: pIC50 range for rat Nap2b (converted)
T2 construct: host or cells: HEK293
T2 sequence (Q9JJ09 1-695): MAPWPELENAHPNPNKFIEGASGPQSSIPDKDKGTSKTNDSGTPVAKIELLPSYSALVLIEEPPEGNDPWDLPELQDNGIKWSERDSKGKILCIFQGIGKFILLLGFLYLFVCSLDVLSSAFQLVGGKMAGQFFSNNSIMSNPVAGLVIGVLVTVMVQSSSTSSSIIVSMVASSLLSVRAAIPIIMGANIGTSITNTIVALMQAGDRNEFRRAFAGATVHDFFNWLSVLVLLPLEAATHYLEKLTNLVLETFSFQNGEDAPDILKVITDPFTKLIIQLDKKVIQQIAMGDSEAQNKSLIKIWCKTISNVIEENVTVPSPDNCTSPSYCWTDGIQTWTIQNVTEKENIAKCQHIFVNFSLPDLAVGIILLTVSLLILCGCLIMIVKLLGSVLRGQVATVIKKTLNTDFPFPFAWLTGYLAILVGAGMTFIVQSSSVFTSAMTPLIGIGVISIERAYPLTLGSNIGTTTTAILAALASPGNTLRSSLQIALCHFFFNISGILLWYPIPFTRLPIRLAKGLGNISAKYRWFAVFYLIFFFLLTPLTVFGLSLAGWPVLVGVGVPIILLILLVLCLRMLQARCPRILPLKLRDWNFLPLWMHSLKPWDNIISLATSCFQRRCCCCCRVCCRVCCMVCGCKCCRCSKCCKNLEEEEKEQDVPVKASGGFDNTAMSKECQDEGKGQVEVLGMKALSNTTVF
Method: as §1, §2, §3, §4, §5

[3] = test system: Uptake of Phosphorus from the Intestine; test: In vivo co-dosing in chow, urinary P output relative to P consumed; set-up: species or system Sprague-Dawley rats; details: rats, compound in chow, nominal 100 mg/kg/day (mean actual 104-105 mg/kg/day), mean of 24-96 h, vs control
Source text: Male, 7-week-old Sprague-Dawley rats (Charles-River laboratories international, Hollister, Calif.) were allowed to acclimate for a minimum of 3 days. The experiment was initiated by switching animals to a synthetic diet (0.6% phosphorus and 0.6% calcium, Harlan Teklad TD.84122) for four days. After this time, the animals were placed into metabolic cages for daily monitoring of food and water consumption, as well as urine and fecal collections. Test compounds were incorporated into the powdered diet listed above containing 3% chocolate flavoring (w/w, BioSery #7345) at 1.3 mg test compound per gram of diet to achieve an average daily nominal dose of 100 mg/kg/day. The actual dose received by each animal was later determined by measuring prepared diet consumption and body weight. Urine samples were collected in three daily periods from 24-48, 48-72, and 72-96 hours of drug dosing. […] Phosphorous levels in the urine were determined by anion exchange chromatography using a Dionex ICS-3000 ion chromatography system. […] Elution of urine phosphate ions was monitored via conductivity detector and reported as ppm relative to a standard ion solution containing phosphate. Daily urinary P output relative to the P consumed in the prepared diet for each animal was calculated. […] The differences between the means of control and treated groups were evaluated by t tests. […]

[4] = Stability in simulated gastric and intestinal fluid; assay type: in vitro ADME; details: 6 hr, 1-20 μM
Method: Test compounds were incubated at 1-20 μM in simulated gastric fluid (SGF; standard USP solution with 3 mg/mL pepsin) or simulated intestinal fluid (SIF; standard USP solution with 3 mg/mL pancreatin) for 3 hr or 6 hr. HPLC-UV or HPLC-MS were used to determine test compound levels using peak area %. Results (Table 5) were reported as the percentage of test compound remaining after incubation in a given condition relative to test compound present at t=0 in the same condition.

[5] = Fecal recovery of orally administered compounds; assay type: in vivo, Sprague-Dawley rats; details: rats, oral gavage, nominal 10 mg/kg (actual 7.6-11 mg/kg), feces 0-48 hr after dosing
Method: Quantitative determination of test compound level in feces after oral gavage was performed using the same set of animals used to determine test compound concentration in plasma (Example 30). The animals were kept in metabolic cages and feces were collected from the time of dosing until 48 hr after dosing. Upon collection, feces was dried by lyophilization and ground to a visually homogenous powder. Duplicate samples of ground feces from each individual animal were weighed out and extracted using organic solvent. Extracted samples were then diluted into mobile phase and test compound levels were quantitatively determined by LC-MS/MS analysis as described in “Example 30” except that the standard curve was prepared in a feces matrix. Extraction conditions were not optimized for individual compounds, and thus may represent a minimal level of recovery.

IC50 [1]: < 1000 nM | IC50 [2]: 1000 to 7940 nM | % remaining, SGF ([4]; simulated gastric fluid with 3 mg/mL pepsin): 100% | % remaining, SIF ([4]; simulated intestinal fluid with 3 mg/mL pancreatin): 97% | % recovered in feces [5]: 17%
Compound: CN(CCOCCOCCOCCC(=O)O)C(=O)c1cccc(C(=O)Nc2ccc(N3CCCCC3)cc2C(=O)Nc2ccn(-c3cccc(C(F)(F)F)c3)n2)c1 [Example 15, 2-Methyl-1-oxo-1-(3-((4-(piperidin-1-yl)-2-((1-(3-(trifluoromethyl)phenyl)-1H-pyrazol-3-yl)carbamoyl)phenyl)carbamoyl)phenyl)-5,8,11-trioxa-2-azatetradecan-14-oic acid]
Mean % inhibition Urine Pout/P consumed [3]: 9%
